Measured values taken from the supplement of paper PMC10307832.

Key:
Experiment in all cases: relative viability (nuclei count vs DMSO), 5 days (fraction); higher = more cells survive
Erlotinib + Palbociclib = compound: C#Cc1cccc(Nc2ncnc3cc(OCCOC)c(OCCOC)cc23)c1 [Erlotinib] + CC(=O)c1c(C)c2cnc(Nc3ccc(N4CCNCC4)cn3)nc2n(C2CCCC2)c1=O [Palbociclib] (partner 0.5 µM)
In short: (§1)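 Lung cancer cell lines in 1536-well plates got either a single drug or a fixed anchor-drug dose together with five library-drug doses (not always all listed) in √10 steps, by pin tool, on the day after seeding. Nuclei were counted after 5 days, and relative viability is the treated-to-vehicle ratio of nuclei counts. Values are medians of duplicate plates.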

Erlotinib + Alpelisib = compound: C#Cc1cccc(Nc2ncnc3cc(OCCOC)c(OCCOC)cc23)c1 [Erlotinib] + Cc1nc(NC(=O)N2CCC[C@H]2C(N)=O)sc1-c1ccnc(C(C)(C)C(F)(F)F)c1 [Alpelisib] (partner 2 µM)
In short: as §1

AT9283 + Palbociclib = compound: O=C(Nc1c[nH]nc1-c1nc2ccc(CN3CCOCC3)cc2[nH]1)NC1CC1 [AT9283] + CC(=O)c1c(C)c2cnc(Nc3ccc(N4CCNCC4)cn3)nc2n(C2CCCC2)c1=O [Palbociclib] (partner 0.5 µM)
In short: as §1

AT9283 + Alpelisib = compound: O=C(Nc1c[nH]nc1-c1nc2ccc(CN3CCOCC3)cc2[nH]1)NC1CC1 [AT9283] + Cc1nc(NC(=O)N2CCC[C@H]2C(N)=O)sc1-c1ccnc(C(C)(C)C(F)(F)F)c1 [Alpelisib] (partner 2 µM)
In short: as §1

Erlotinib + AZD7762 = compound: C#Cc1cccc(Nc2ncnc3cc(OCCOC)c(OCCOC)cc23)c1 [Erlotinib] + NC(=O)Nc1cc(-c2cccc(F)c2)sc1C(=O)N[C@H]1CCCNC1 [AZD7762] (partner 0.2 µM)
In short: as §1

Cell Line | relative viability (Erlotinib + Palbociclib; first compound 0.02 µM) | relative viability (Erlotinib + Palbociclib; first compound 0.2 µM) | relative viability (Erlotinib + Palbociclib; first compound 0.6325 µM) | relative viability (Erlotinib + Palbociclib; first compound 2 µM) | relative viability (Erlotinib + Alpelisib; first compound 0.02 µM) | relative viability (Erlotinib + Alpelisib; first compound 0.2 µM) | relative viability (Erlotinib + Alpelisib; first compound 0.6325 µM) | relative viability (Erlotinib + Alpelisib; first compound 2 µM) | relative viability (AT9283 + Palbociclib; first compound 0.003 µM) | relative viability (AT9283 + Palbociclib; first compound 0.03 µM) | relative viability (AT9283 + Palbociclib; first compound 0.09487 µM) | relative viability (AT9283 + Palbociclib; first compound 0.3 µM) | relative viability (AT9283 + Alpelisib; first compound 0.003 µM) | relative viability (AT9283 + Alpelisib; first compound 0.03 µM) | relative viability (AT9283 + Alpelisib; first compound 0.09487 µM) | relative viability (AT9283 + Alpelisib; first compound 0.3 µM) | relative viability (Erlotinib + AZD7762; first compound 0.2 µM) | relative viability (Erlotinib + AZD7762; first compound 0.6325 µM) | relative viability (Erlotinib + AZD7762; first compound 2 µM) | relative viability (Erlotinib + AZD7762; first compound 0.02 µM)
SK-MES-1 | 0.35 | 0.257 | 0.327 | 0.293 | 0.926 | 0.536 | 0.533 | 0.298 | 0.365 | 0.311 | 0.255 | 0.2 | 0.807 | 0.859 | 0.509 | 0.173 |  |  |  | 
SW 1573 | 0.38 | 0.362 | 0.37 | 0.355 | 0.805 | 0.706 | 0.87 |  | 0.333 | 0.158 | 0.173 | 0.121 | 0.766 | 0.441 | 0.226 | 0.249 |  |  |  | 
SK-LU-1 | 0.372 | 0.432 | 0.376 | 0.357 | 1.36 | 1.01 | 0.962 | 0.631 | 0.416 | 0.373 | 0.279 | 0.283 | 1.2 | 0.426 | 0.304 | 0.254 |  |  |  | 
IA-LM |  |  |  |  | 0.984 |  | 0.7 | 0.789 |  |  |  |  | 0.891 | 0.418 | 0.199 | 0.0959 |  |  |  | 
NCI-H1648 | 0.337 | 0.277 | 0.293 | 0.272 |  |  |  |  | 0.247 | 0.262 | 0.242 | 0.297 |  |  |  |  | 0.649 | 0.64 | 0.465 | 
NCI-H1563 |  |  |  |  | 0.931 |  | 0.952 | 0.799 |  |  |  |  | 1.08 | 0.81 | 0.732 | 0.628 |  |  |  | 
ChaGo-K-1 | 0.89 | 0.952 | 0.951 | 0.854 |  |  |  |  | 0.931 | 0.761 | 0.295 | 0.212 |  |  |  |  | 0.922 | 0.845 | 0.76 | 
NCI-H522 | 0.908 | 0.969 | 0.883 | 0.824 |  |  |  |  | 0.945 | 0.731 | 0.577 | 0.585 |  |  |  |  | 0.893 | 1.02 | 0.833 | 0.812
COR-L23 | 0.292 | 0.287 | 0.383 | 0.29 | 0.84 | 0.719 | 0.836 | 0.553 | 0.286 | 0.141 | 0.11 | 0.121 | 0.811 | 0.23 | 0.117 | 0.109 |  |  |  | 
COR-L 105 | 0.402 | 0.322 | 0.359 | 0.328 | 1.09 | 0.659 | 0.477 | 0.243 | 0.392 | 0.327 | 0.328 | 0.286 | 1.49 | 0.342 | 0.278 | 0.333 |  |  |  | 
SW 900 | 0.492 | 0.48 | 0.472 | 0.398 |  |  |  |  | 0.462 | 0.542 | 0.368 | 0.253 |  |  |  |  | 0.52 | 0.557 | 0.443 | 0.783
NCI-H520 | 0.202 | 0.223 | 0.272 | 0.311 | 0.932 | 0.934 | 1.17 |  | 0.238 | 0.2 | 0.142 | 0.127 | 1.01 | 0.338 | 0.274 | 0.239 |  |  |  | 
NCI-H2009 | 0.173 | 0.205 | 0.235 | 0.203 | 1.24 | 1.16 | 1.17 | 1.13 | 0.235 | 0.174 | 0.0777 | 0.032 | 1.13 | 1.05 | 0.734 | 0.401 |  |  |  | 
NCI-H2228 | 0.805 | 0.739 |  | 0.572 | 0.906 | 0.858 | 0.716 | 0.642 | 0.588 | 0.492 | 0.351 | 0.149 | 0.831 | 0.676 | 0.176 | 0.136 |  |  |  | 
A549 |  |  |  |  | 0.709 | 0.68 | 0.728 | 0.595 |  |  |  |  | 0.973 | 0.0793 | 0.0636 | 0.068 |  |  |  | 
UMC-11 | 0.364 | 0.328 | 0.345 | 0.382 | 0.986 | 1.06 | 1.21 | 1.05 | 0.327 | 0.235 | 0.243 | 0.186 | 1.01 | 0.148 | 0.122 | 0.146 |  |  |  | 
Calu-6 |  |  |  |  | 0.983 | 1.06 | 1.04 | 0.909 |  |  |  |  | 0.986 | 0.23 | 0.26 | 0.246 |  |  |  | 
EBC-1 |  |  |  |  | 0.792 | 0.772 | 0.757 | 0.792 |  |  |  |  | 0.961 | 0.291 | 0.176 | 0.177 |  |  |  | 
NCI-H1650 | 0.265 | 0.287 | 0.309 | 0.245 |  |  |  |  | 0.38 | 0.404 | 0.242 | 0.237 |  |  |  |  |  |  |  | 
NCI-H661 | 0.418 | 0.43 | 0.383 | 0.355 | 0.545 | 0.556 | 0.782 | 0.426 | 0.44 | 0.368 | 0.329 | 0.368 | 0.627 | 0.427 | 0.329 | 0.36 |  |  |  | 
NCI-H1299 |  |  |  |  | 1.07 | 1.03 | 1.1 | 1.03 |  |  |  |  | 1.08 | 1.04 | 0.476 | 0.352 |  |  |  | 
NCI-H2023 | 0.393 | 0.351 | 0.297 | 0.225 | 0.64 | 0.525 | 0.453 | 0.401 | 0.417 | 0.327 | 0.258 | 0.139 | 0.634 | 0.501 | 0.34 | 0.131 |  |  |  | 
NCI-H2342 | 0.469 | 0.439 | 0.457 | 0.591 |  |  |  |  | 0.505 | 0.535 | 0.502 | 0.449 |  |  |  |  | 0.566 | 0.502 |  | 0.453
